Assay: xn = mol fraction of the nth substance listed
Conditions: 313.15 K, Liquid, Vibrating tube method

CCCCCCCC [octane] + CCCO
Conditions	mass density [kg/m3]
100 kPa, x2 = 0.1631	693.18
100 kPa, x2 = 0.2111	695.76
100 kPa, x2 = 0.3158	701.99
100 kPa, x2 = 0.4411	711
100 kPa, x2 = 0.7301	740.14
100 kPa, x2 = 0.8823	763.46
1000 kPa, x2 = 0.1631	694.31
1000 kPa, x2 = 0.4411	712.19
1010 kPa, x2 = 0.2111	696.95
1010 kPa, x2 = 0.3158	703.21
1010 kPa, x2 = 0.7301	741.33
1010 kPa, x2 = 0.8823	764.37
2000 kPa, x2 = 0.7301	742.25
2010 kPa, x2 = 0.1631	695.26
2010 kPa, x2 = 0.2111	697.87
2010 kPa, x2 = 0.3158	704.14
2010 kPa, x2 = 0.4411	713.12
2010 kPa, x2 = 0.8823	765.24
3000 kPa, x2 = 0.2111	698.81
3000 kPa, x2 = 0.4411	714.05
3000 kPa, x2 = 0.7301	743.18
3010 kPa, x2 = 0.3158	705.04
3020 kPa, x2 = 0.1631	696.19
3020 kPa, x2 = 0.8823	766.13
4000 kPa, x2 = 0.2111	699.72
4000 kPa, x2 = 0.4411	714.95
4010 kPa, x2 = 0.3158	705.98
4010 kPa, x2 = 0.7301	744.05
4020 kPa, x2 = 0.1631	697.09
4020 kPa, x2 = 0.8823	767
5000 kPa, x2 = 0.1631	698.01
5000 kPa, x2 = 0.3158	706.86
5000 kPa, x2 = 0.8823	767.9
5010 kPa, x2 = 0.2111	700.64
5010 kPa, x2 = 0.7301	744.95
5020 kPa, x2 = 0.4411	715.86
6010 kPa, x2 = 0.2111	701.53
6010 kPa, x2 = 0.4411	716.76
6010 kPa, x2 = 0.7301	745.83
6010 kPa, x2 = 0.8823	768.74
6020 kPa, x2 = 0.1631	698.89
6020 kPa, x2 = 0.3158	707.76
7000 kPa, x2 = 0.3158	708.66
7010 kPa, x2 = 0.7301	746.74
7020 kPa, x2 = 0.1631	699.79
7020 kPa, x2 = 0.2111	702.4
7020 kPa, x2 = 0.4411	717.65
7020 kPa, x2 = 0.8823	769.63
8000 kPa, x2 = 0.1631	700.66
8010 kPa, x2 = 0.3158	709.55
8010 kPa, x2 = 0.4411	718.55
8010 kPa, x2 = 0.7301	747.6
8010 kPa, x2 = 0.8823	770.46
8020 kPa, x2 = 0.2111	703.3
9000 kPa, x2 = 0.3158	710.41
9000 kPa, x2 = 0.4411	719.39
9000 kPa, x2 = 0.7301	748.46
9010 kPa, x2 = 0.1631	701.54
9020 kPa, x2 = 0.2111	704.17
9020 kPa, x2 = 0.8823	771.29
10000 kPa, x2 = 0.2111	705.02
10010 kPa, x2 = 0.1631	702.41
10010 kPa, x2 = 0.4411	720.29
10010 kPa, x2 = 0.7301	749.32
10020 kPa, x2 = 0.3158	711.31
10020 kPa, x2 = 0.8823	772.16
11000 kPa, x2 = 0.1631	703.29
11000 kPa, x2 = 0.8823	772.97
11010 kPa, x2 = 0.3158	712.17
11010 kPa, x2 = 0.7301	750.16
11020 kPa, x2 = 0.2111	705.91
11020 kPa, x2 = 0.4411	721.14
12010 kPa, x2 = 0.1631	704.11
12010 kPa, x2 = 0.2111	706.77
12010 kPa, x2 = 0.3158	712.99
12010 kPa, x2 = 0.7301	751
12020 kPa, x2 = 0.4411	722
12020 kPa, x2 = 0.8823	773.81
13000 kPa, x2 = 0.4411	722.85
13000 kPa, x2 = 0.8823	774.61
13010 kPa, x2 = 0.1631	704.97
13010 kPa, x2 = 0.3158	713.85
13010 kPa, x2 = 0.7301	751.83
13020 kPa, x2 = 0.2111	707.6
14010 kPa, x2 = 0.3158	714.67
14020 kPa, x2 = 0.1631	705.8
14020 kPa, x2 = 0.2111	708.41
14020 kPa, x2 = 0.4411	723.68
14020 kPa, x2 = 0.7301	752.64
14020 kPa, x2 = 0.8823	775.41
15000 kPa, x2 = 0.4411	724.48
15010 kPa, x2 = 0.2111	709.26
15010 kPa, x2 = 0.3158	715.49
15010 kPa, x2 = 0.7301	753.46

From the NIST ThermoML archive (doi:10.1021/acs.jced.8b00554)
